Measured values published in the METLIN SMRT retention time set (Domingo-Almenara et al. 2019).

Assay: gradient 5% acetonitrile 3 min, to 50% in 2 min, to 85% in 15 min, held 3 min, 100 µL/min
Settings: column: Zorbax Extend-C18 2.1 x 50 mm; eluents: water / acetonitrile, 0.1% formic acid
How it was run: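 Retention times come from adduct peaks that were picked computationally and then checked by hand. The standards, pure and pooled in mixtures of ~100 molecules, were run on a Zorbax Extend-C18 column (2.1 × 50 mm, 1.8 μm) at 100 μL/min with water and acetonitrile, each with 0.1% formic acid. Detection was by quadrupole time-of-flight mass spectrometry in positive and negative ionization mode, with a dead volume of 40 μL and a dwell volume of 900 μL.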

| RP-LC retention time | SMILES |
| --- | --- |
| 1060 s | CCN1C(=O)c2cc(S(=O)(=O)Nc3cccc(Cl)c3)ccc2Oc2cccnc21 |
| 831 s | Cc1nc(OCC(=O)Nc2ccc(Cl)cc2Cl)c2ccccc2n1 |
| 933 s | CCOc1ccccc1NC(=O)Cn1c(=O)n(-c2ccc(F)cc2)c(=O)c2c1cc(C)n2C |
| 804 s | CCn1nc(CNC(=O)c2ccc3c(c2)OCO3)c2ccccc21 |
| 624 s | Cc1noc(-c2ccc(-n3ncc(C(=O)N4CCN(c5ccccn5)CC4)c3C)nc2)n1 |
| 720 s | COc1cc2c(cc1OC)C(C(=O)Nc1ccc(C(C)C)cc1)C(c1cccnc1)N(C)C2=O (stereo unspecified) |
| 766 s | COC(=O)c1c(NCc2ccccc2Cl)c2ccccc2[nH]c1=O |
| 773 s | CCCn1cc(C2=CCN(C(=O)Nc3cccc(Cl)c3F)CC2)c2cccnc21 |
| 674 s | c1ccc(-c2csc(Nc3cccnc3)n2)cc1 |
| 1010 s | CC(C)c1ccc(-c2csc(Nc3ccc(S(N)(=O)=O)cc3)n2)cc1 |
| 1050 s | COC(=O)c1ccc(-c2nc3cnccn3c2Nc2ccc(C)c(Cl)c2)cc1 |
| 949 s | Cc1ccc(-c2nc(C)c(C(=O)NC(C)C)s2)cc1 |
| 795 s | CCN1C(=O)c2cccnc2Sc2cc(NC(=O)C(C)(C)C)ccc21 |
| 1100 s | Cc1ccc(C)c(NC(=O)c2cn(-c3cc(-c4nc(C5CC5)no4)ccn3)cn2)c1 |
| 942 s | CCOc1ccc(-n2ccn3cc(-c4ccc(C)cc4C)nc3c2=O)cc1 |
| 1110 s | Cc1nc2cc(-c3noc(-c4cccc(F)c4)n3)ccc2o1 |

| RP-LC retention time | SMILES |
| --- | --- |
| 776 s | COC(=O)c1ccc(NC(=O)Cn2ccc3ccc(-c4nnc(C)o4)cc32)cc1 |
| 890 s | CCOc1ccc(NC(=O)N(C)CCc2noc(COc3ccccc3)n2)cc1 |
| 853 s | Cc1ccc(NC(=O)NC2CCN(c3ccccc3)C2=O)cc1C (stereo unspecified) |
| 1130 s | CCOc1ccc2cccc(NC(=O)Cc3cccs3)c2n1 |
| 1170 s | CCc1nc2c(sc3nc(-c4ccccc4)ccc32)c(=O)n1CC(=O)N1CCc2ccccc2C1 |
| 960 s | Cc1cccc(-n2c(=O)c3c(cc(C)n3C)n(CC(=O)Nc3cc(Cl)ccc3C)c2=O)c1 |
| 897 s | O=C(c1cc(Cl)ccc1Cl)N1CCN(c2cc(-c3ccc(F)cc3)[nH]n2)CC1 |
| 872 s | CCc1noc(NC(C)=O)c1-c1ccc(C)c(S(=O)(=O)Nc2cc(Cl)ccc2OC)c1 |
| 806 s | Cc1cc(NC(=O)c2nc3ccccc3s2)n(C(C)C)n1 |
| 1160 s | CCc1ccccc1NC(=O)c1nnn(-c2ccc3noc(-c4ccccc4)c3c2)c1C |
| 1030 s | O=C(Cn1cccc1-c1nnc(-c2ccccc2)o1)Nc1ccc(Cl)cc1 |
| 625 s | O=C(c1ccncc1)N1CCC2(CC1)N=C(c1ccc(Cl)cc1)NO2 |
| 990 s | Cc1ccc2nc(-c3ccncc3)cc(C(=O)Nc3nc(-c4ccccc4)c(C)s3)c2c1 |
| 844 s | O=C(NC1CCN(c2ccccc2)C1=O)c1ccc(Br)cc1 (stereo unspecified) |
| 1100 s | CCCN1C(=O)COc2ccc(-c3noc(COc4ccccc4)n3)cc21 |

The next lines start with the compound.

| SMILES | RP-LC retention time |
| --- | --- |
| Cc1ccc(S(=O)(=O)N2CC3CN(C(=O)C4COc5ccccc5O4)CC(C2)O3)cc1 (stereo unspecified) | 928 s |
| O=C(Cc1ccsc1)NCCC1CCN(C(=O)Nc2ccccc2)CC1 | 792 s |
| COc1cccc(S(=O)(=O)N2CCC3(C2)C(=O)N(C)c2ccc(OC)cc23)c1 (stereo unspecified) | 904 s |
| COc1ccc(Cl)cc1NC(=O)c1[nH]c(C)c(S(=O)(=O)N2CCCC2)c1C | 1040 s |
| Cc1noc(C)c1C1CCCN1C(=O)NC(C)C (stereo unspecified) | 656 s |
| O=C(Nc1cnn(-c2ncncc2N2CCOCC2)c1)c1cc2c(s1)CCCC2 | 789 s |
| O=C(NCCc1ccc(Cl)cc1)c1nnc(-c2ccc(S(=O)(=O)N3CCCCC3)cc2)o1 | 1110 s |
| COc1cccc(C(=O)NCc2ccc3[nH]c4c(c3c2)CCCC4)c1OC | 910 s |
| O=c1c2nnn(-c3cccc(F)c3)c2ncn1Cc1cccnc1 | 587 s |
| O=C(Nc1cccc(OC(F)(F)F)c1)C1CCCN(c2nnc3ccccn23)C1 (stereo unspecified) | 784 s |
| Cc1ccc(C)c(NS(=O)(=O)c2cc3n(c2)CCCNC3=O)c1 | 663 s |
| O=C(c1ccc(F)cc1F)N1CCC2(CC1)OCC(C(=O)N1CCCC1)N2C(=O)c1ccccc1 (stereo unspecified) | 698 s |
| Cc1nc(-c2ccc3c(c2)n(CC(=O)NC(C)(C)C)c(=O)n3C(C)C)no1 | 810 s |
| CC(C)C(=O)N1CCc2[nH]nc(C(=O)NCCCc3ccccc3)c2C1 | 756 s |
| Cn1c(N2CCCC(C(=O)NC3CCCCCC3)C2)cc(=O)n(C)c1=O (stereo unspecified) | 715 s |
| O=C(c1cnn2cccnc12)N1CCCC1c1cccc(F)c1 (stereo unspecified) | 754 s |
| COc1cc(-c2nnc(-c3ccc(C)c(S(=O)(=O)N4CCCC4)c3)o2)cc(OC)c1OC | 986 s |
| CC1CCN(c2nn(CC(=O)Nc3ccc4c(c3)CCC4)c(=O)c3ccccc23)CC1 | 1250 s |

| SMILES | RP-LC retention time |
| --- | --- |
| CCCNC(=O)C1CCCN(c2ccc(SCC(=O)Nc3ccc(C)c(F)c3)nn2)C1 (stereo unspecified) | 718 s |
| Cc1cc2c(cc(C(=O)N3CCC(C(=O)NC4CCCC4)CC3)n2Cc2c(F)cccc2Cl)o1 | 998 s |
| O=C(NCc1cccc(Cl)c1)C1CCCN(c2cnc3nccnc3c2)C1 (stereo unspecified) | 749 s |
| CCNC(=O)CCc1nc2ccccc2n(CC(=O)NCc2cccc(OC)c2OC)c1=O | 1110 s |
| CCN(CC)c1ncc2c(n1)CCC(C(=O)NCc1ccc(C(C)C)cc1)C2 (stereo unspecified) | 821 s |
| O=C(NC1CCCCC1)C1(CCO)CC12CCN(c1ncccn1)CC2 (stereo unspecified) | 651 s |
| O=C(Cn1ccc2ccc(N3CCOCC3)nc21)NCc1ccc(Br)cc1 | 915 s |
| COc1ccc(CNC(=O)NCc2nnnn2-c2ccc(F)c(F)c2)cc1OC | 678 s |
| CSc1nnc(-c2nn(C)c3c2CN(C(=O)c2cccc(Cl)c2)CC3)n1C | 737 s |
| Cc1noc(C)c1S(=O)(=O)N1CCC[C@H](n2c(=O)n(C)c3cccnc32)C1 | 816 s |
| CCCC1OC(c2cc3c(cc2Cl)OCO3)OCC1CC (stereo unspecified) | 1070 s |
| Cc1cccc(Cn2cc(C(=O)O)c(S(=O)(=O)N3CCSCC3)n2)c1 | 914 s |
| Cn1cccc1C(=O)NC(C)(C)c1nc2c(c(C(N)=O)n1)OCCO2 | 608 s |
| CCn1cc(CCN2CCN(C(=O)c3cccs3)CC2)c2cccnc21 | 589 s |
| COc1ccc(NC(=O)N2CCc3cn(CC(C)C)c4cccc(c34)C2)cc1 | 1030 s |
| COc1ccccc1CNc1ncc(C(=O)O)c(C(C)C)n1 | 898 s |
| CCOC(=O)C1CCN(c2ncc(S(=O)(=O)c3ccc(CC)cc3)c(N)n2)CC1 | 1030 s |
